{"source": "patent US20220142967A1", "about": "“Methods and Compositions for the Treatment of Multiple Sclerosis” (SYMBIONYX PHARMACEUTICALS INC, priority 2018, published 2022)", "key": {"[1]": {"system": "MS", "details": "MS patients, oral therapy; cited from earlier work"}, "[2]": {"system": "patients with Relapsing-Remitting Multiple Sclerosis", "details": "cited from earlier work"}, "[3]": {"target": "T1, carboxylesterase 2 (CES2) (Homo sapiens, UniProt O00748)", "T1 sequence (O00748 27-559)": "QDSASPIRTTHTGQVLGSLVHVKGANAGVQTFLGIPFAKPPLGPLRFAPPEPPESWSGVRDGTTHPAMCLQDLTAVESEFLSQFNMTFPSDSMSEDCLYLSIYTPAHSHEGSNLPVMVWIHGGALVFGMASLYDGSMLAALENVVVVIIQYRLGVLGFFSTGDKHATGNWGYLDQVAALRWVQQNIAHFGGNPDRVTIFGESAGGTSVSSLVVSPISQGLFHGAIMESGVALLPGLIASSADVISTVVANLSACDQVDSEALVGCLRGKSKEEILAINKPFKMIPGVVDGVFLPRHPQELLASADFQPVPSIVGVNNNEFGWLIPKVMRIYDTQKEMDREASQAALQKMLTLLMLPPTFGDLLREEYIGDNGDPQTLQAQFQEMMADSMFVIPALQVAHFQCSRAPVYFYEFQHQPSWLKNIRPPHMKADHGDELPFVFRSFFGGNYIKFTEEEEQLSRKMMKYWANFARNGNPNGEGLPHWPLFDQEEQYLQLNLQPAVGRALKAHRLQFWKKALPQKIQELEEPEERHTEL", "experiment": "Carboxylesterase hydrolysis IDMF v DRF", "format": "in vitro ADME", "details": "20 μl of 1 mg/ml CES2, 37° C., pH 7.4", "procedure": "20 μl of 1 mg/ml carboxylesterase 2 (CES2) was added to each solution and the solutions incubated at 37° C. for the time periods set forth in Table 5. […] Although tolerable for normal patients, HES is undesirable and detrimental for those individuals have kidney and/or liver issues"}, "[4]": {"system": "human fetal astrocytes derived from cerebral cortex", "experiment": "Transcriptome analysis of astrocyte cultures treated with MMF, DRF, IDMF", "format": "cell-based", "details": "2.5 μM, 24 hours", "procedure": "(§1) Experiments were performed using human fetal astrocytes derived from cerebral cortex (cat. no. 882A-05f; Cell Applications, Sant Diego, Calif.). Cells were grown to subconfluence in human astrocyte growth medium (cat. no. 820-500, Cell Applications). […] Test materials were added to subconfluent cultures at a concentration of 2.5 μM and cells were incubated for 24 hours.\n(§2) RNA was extracted following the incubation period using the RNAeasy Mini Plus kit (Qiagen, Hilden, Germany) and robotic Qiacube Connect station (Qiagen). Samples were shipped on dry ice to the Thermo Fisher Microarray Research Services Laboratory (Santa Clara, Calif.) for transcriptome analysis. RNA quality analysis was performed upon sample receipt using the NanoDrop Lite (Thermo Fisher Scientific, Waltham, Mass.). All samples had 260/280 nm absorbance ratios higher than 1.90, consistent with high-purity RNA.\nIn follow-up to the study of Example, 1 above, genes associated with multiple sclerosis were identified based upon seven established database sources: (1) the NHGRI-EBI genome-wide association (GWA) study catalogue, (2) the Disease Ontology (DO) database, (3) the DisGeNET (curated) database, (4) the DisGeNET (BeFree), (5) MalaCards, (6) the Medical Subject Heading (MESH) database and the KEGG Database. The impact on gene expression of IDMF, MMF and DRF on the key overlapping MS-associated genes was assessed.\nThe specific data for four of the key NFR2 target genes associated with antioxidant and anti-inflammatory effects is presented in FIGS. 7(A) thru 7(D).\nBoth TNFAIP3 and NFKBIA encode inhibitory proteins that suppress the NF-KB pathway. Specifically, TNFAIP3 encodes a deubiquitinating enzyme previously linked to MS by genetic association studies: a TNFAIP3 protein abundance is increased in white matter and cortical lesion astrocytes from MS patient brains. Similarly, NFKBIA (IκBα) encodes an NF-KB inhibitor for which promoter polymorphisms have been associated with MS and abundance of this protein is prominent in macrophage nuclei of MS plaques undergoing active demyelination. ICAM1 encodes an endothelial adhesion molecule that promotes leucocyte extravasation and is associated with the initiation and progression of inflammation as well as the targeting of inflammation in the central nervous system (CNS). FIGS. 9(A), 9(B) and 9(C) show the specific data for these three genes.\nGenetic variants of IFR has been associated with MS and some MS treatments such as glatiramer acetate block cytokine-stimulated IRF1 up-regulation. An assessment was undertaken to assess the relative impact of fumarate esters, namely MMF, DRF and IDMF on IFR motif enrichment."}, "[5]": {"details": "in vivo; cited from earlier work"}, "[6]": {"system": "human fetal astrocytes derived from cerebral cortex", "experiment": "Comparative RT-PCR evaluation of selected genes in astrocytes", "format": "cell-based", "procedure": "as §1, §2\nThe expression of selected genes was further evaluated using RT-PCR. cDNA was prepared using the AzuraQuant cDNA kit (Azura Genomics, Raynham, Mass.) and PCR reactions were performed using the BioRad iCycler iQ Detection System with Fast Green qPCR Master Mix—Fluor (Azura Genomics). PCR primers were purchased from Realtimeprimers (Elkins Park, Pa.). The ΔΔCt method [Livak K. J. and Schmittgen T. D. Analysis of relative gene expression data using real-time quantitative PCR and the 2(−Delta Delta C(T)) Method. Methods (San Diego, Calif.) 25(4):402-408, 2001]. was used to estimate fold changes with cycle threshold values normalized based upon the expression of glyceraldehyde-3-phosphate dehydrogenase (GAPDH)."}, "[7]": {"system": "patients with relapsing remitting MS (RRMS)", "details": "cited from earlier work"}, "[8]": {"system": "cultured astrocytes", "experiment": "RNA-seq of cultured astrocytes compared with MS patient white matter astrocytes (GSE83670)", "format": "cell-based, human", "details": "cultured astrocytes vs. LCM-dissected MS patient astrocytes", "procedure": "Previously, Waller et al. 2016 (J Neuroimmunol 299:139-146) used laser capture microdissection (LCM) to isolate astrocytes from normal appearing white matter in MS patients and CTL subjects (GEO dataset GSE83670; PMID: 27125112).\ncDNA sequencing was performed by the University of Michigan sequencing core facility (50 cycle single end Illumina HiSeq 2000). The FASTX-Toolkit was used to filter reads by removing low quality sequences and initial quality assessments were performed using FastQC. Quality-filtered reads were mapped to the human genome (hg38/GRCh38, UCSC) using tophat2 with default settings, except multi-mapping of reads to multiple genome locations was disallowed (settings: -g 1 —no-coverage-search). The hg38/GRCh38 genome is the most recent release available from UCSC. HTSeq was used to tabulate the number of reads mapping to each genome feature and Cufflinks was used to calculate FPKM estimates and associated confidence intervals. RSeQC was used to assess quality of mapping and calculate the percentage of mapped reads. The negative binomial model (edgeR) was used to evaluate differential expression, with read counts normalized using the weighted trimmed mean of M-values method, and dispersions estimated using the Cox-Reid (CR)-adjusted likelihood approach. Differential expression analyses were performed using genes with detectable expression in at least 1 of 4 samples involved in a given comparison. A gene was considered to have detectable expression in a sample if the count per million mapped reads (cpm) estimate was greater than 0.20 and if the lower bound of the FPKM 95% confidence interval was greater than zero.\nFIG. 3 presents in scatterplot and histogram format the results of the study on the astrocytes. Scatterplots (A) and (D) compare fold change (FC) estimates in DMF-treated (A) and IDMF-treated (D) astrocytes to LCM-dissected astrocytes in MS patients and healthy controls (CTLs). Each point represents a protein-coding gene and the light colored ellipses outline the 90% of genes closest to the bivariate mean based upon the Mahalanobis distance. The Spearman rank correlation coefficient estimate is shown (upper-left). The proportion of genes within each quadrant is indicated in the upper margin (P<0.05, Fisher's exact test), wherein the quadrants are defined by a vertical and horizontal line through the “1” in each axis with the proportion corresponding, left to right to the upper left, the upper right, the lower right and lower left quadrants, respectively. Gene set overlap is presented in (B), (C), (E) and (F) wherein genes within each set were altered with a P<0.05 threshold. P-values from the test of overlap significance are shown (bottom margin, Fisher's exact test). […]"}, "[9]": {"target": "T1, carboxylesterase 2 (CES2)", "experiment": "Carboxylesterase hydrolysis IDMF v DMF", "format": "in vitro ADME", "details": "for remaining parent compound: 1 mg/ml CES2, 37° C., pH 7.4", "procedure": "IDMF and DMF were subjected to carboxylesterase hydrolysis. […] 1 mg/ml carboxylesterase 2 (CES2) was added to each solution and the solutions incubated at 37° C. for the time periods set forth in Table 5. […] Isosorbide was quantified using CAD. Mobile phase used for the study: 0.1% Formic acid in water; B: Methanol. Column: Luna C18 4.6 mm×100 mm, 5 u (Phenomenex). Flow rate: 1.0 ml/min."}, "[10]": {"system": "human fetal astrocytes", "experiment": "A1 v A2 marker activation, RNA-seq of H2O2-stimulated astrocytes", "format": "cell-based", "details": "2.5 μM, 24 hrs, H2O2 (50 μM) stimulated", "procedure": "The treated cells were stimulated with H2O2 (50 μM) for 20 min and the RNA extracted 1 day later and sequenced using the Illumina HiSeq 2000 with an average of 39.3 million reads per sample. Reads were mapped to the GHch38/hg38 genome. 13,968 protein-coding genes had detectable expression on average among the 6 samples. Differentially expressed genes (DEGs) were identified using negative binomial models with FDR threshold of <0.10 and fold change (FC) criteria (FC>1.30 or FC<0.77). Gene set enrichment testing was performed using public database annotations. Motif enrichment with respect to DEG up-stream regions was characterized using semiparametric generalized additive logistics models. The overlap between the identified DEGs and MS-associated genes, i.e., genes from MS patients and genes linked to inflammatory (A1) and ischemic (A2) astrogliosis."}, "[11]": {"details": "DRF 462 mg BID, 96-week study (EVOLVE-MS-1)"}, "[12]": {"details": "DEFINE and CONFIRM phase III trials"}}, "note": "Where a name gives a salt, the structure may show the parent alone."}
{"compound": "CCCCCCCCc1ccc(CCC(N)(CO)CO)cc1", "note": "[Fingolimod]", "values": [{"measurement": "Side effects", "setting": "[1]", "value": "First dose"}]}
{"compound": "C/C(O)=C(\\C#N)C(=O)Nc1ccc(C(F)(F)F)cc1", "note": "[Teriflunomide]", "values": [{"measurement": "Side effects", "setting": "[1]", "value": "Gl, hair thinning,"}]}
{"compound": "COC(=O)/C=C/C(=O)OCCN1C(=O)CCC1=O", "note": "[DRF, diroximel fumarate]", "values": [{"measurement": "reduction of number of days with at least moderate GI symptoms", "setting": "[2]; 5-week study, DRF 462 mg BID as compared to DMF 240 mg BID", "value": 46, "unit": "%"}, {"measurement": "discontinuation due to adverse GI effects, patients", "setting": "[2]; [11]", "value": 6.3, "unit": "%"}, {"measurement": "patients who developed adverse GI effects", "setting": "[2]; [11]", "value": 30.9, "unit": "%"}, {"measurement": "remaining parent compound", "setting": "[3]; 0 minutes", "value": 1, "unit": "mM"}, {"measurement": "remaining parent compound", "setting": "[3]; 15 minutes", "value": ".652 mM"}, {"measurement": "remaining parent compound", "setting": "[3]; 30 minutes", "value": 0.482, "unit": "mM"}, {"measurement": "remaining parent compound", "setting": "[3]; 60 minutes", "value": 0.273, "unit": "mM"}, {"measurement": "remaining parent compound", "setting": "[3]; 120 minutes", "value": 0.08, "unit": "mM"}, {"measurement": "effect on TNFAIP3, NFKBIA and ICAM1 expression", "setting": "[4]", "value": "effectively no effect"}, {"measurement": "RDC-8439 and methanol generated as minor products", "setting": "[5]", "value": "< 10", "unit": "%"}, {"measurement": "fraction metabolized to HES and MMF", "setting": "[5]", "value": "> 90", "unit": "%"}, {"measurement": "OSGIN1 expression", "setting": "[6]; FIG. 11(B)", "value": "suppression"}, {"measurement": "expression of key MS-associated genes (IL-6, ICAM1, MALT1, TNFAIP3, IRF1, CXCL8)", "setting": "[6]; FIGS. 11(C) through 11(H)", "value": "negligible effect"}]}
{"compound": "COC(=O)/C=C/C(=O)OC", "note": "[DMF, Dimethyl fumarate]", "values": [{"measurement": "flushing, most reported adverse effect", "setting": "[7]; [12]", "value": "24-38%"}, {"measurement": "specific gastrointestinal (GI) adverse effects (nausea, vomiting, diarrhea, upper abdominal pain), patients", "setting": "[7]; [12]", "value": "7 to 19", "unit": "%"}, {"measurement": "patients who experienced adverse GI effects", "setting": "[7]; after 1 year, in these trials", "value": 36, "unit": "%"}, {"measurement": "discontinuation of DMF due to GI side effects, patients", "setting": "[7]; real-world settings", "value": "5-19%"}, {"measurement": "correlation of genome-wide expression responses with those observed in MS patients (Spearman r)", "setting": "[8]", "value": 0.23}, {"measurement": "remaining parent compound", "setting": "[9]; 0 minutes", "value": 1, "unit": "mM"}, {"measurement": "remaining parent compound", "setting": "[9]; 30 minutes", "value": 0.166, "unit": "mM"}, {"measurement": "remaining parent compound", "setting": "[9]; 60 minutes", "value": 0.08, "unit": "mM"}, {"measurement": "remaining parent compound", "setting": "[9]; 120 minutes", "value": 0.014, "unit": "mM"}, {"measurement": "time by which essentially all is hydrolyzed", "setting": "[9]; CES2, 37° C.", "value": "≤ 60", "unit": "min"}, {"measurement": "fraction not hydrolyzed to MMF", "setting": "[9]; within thirty minutes", "value": "about 17%"}, {"measurement": "ICAM1 expression", "setting": "[10]", "value": "no similar activity"}, {"measurement": "expression of genes linked to A1-polarization", "setting": "[10]", "value": "tended to increase expression"}, {"measurement": "expression of genes linked to A2-polarization", "setting": "[10]", "value": "decreased expression"}, {"measurement": "Disability reduction, %", "setting": "[1]", "value": 38, "unit": "%"}, {"measurement": "Gadolinium enhancement reduction, %", "setting": "[1]", "value": "74-90%"}, {"measurement": "Relapse rate reduction vs. placebo, %", "setting": "[1]", "value": "44-53%"}, {"measurement": "Side effects", "setting": "[1]", "value": "Flushing,"}, {"measurement": "T2w lesion reduction, %", "setting": "[1]", "value": "71-85%"}]}
